The term pIC50 denotes the IC50 on a negative log10 scale, so that one unit is a factor of ten. Broadly, the bioavailability is the share of a dose that reaches the circulation, judged against a reference dose that is usually intravenous. A lower bioavailability goes with little systemic uptake.

These results are taken from patent US9717706B2, “Chromone inhibitors of S-nitrosoglutathione reductase” (Nivalis Therapeutics, Inc., priority 2010, dated 2017).

Structures are written as SMILES. pIC50: −log10 of the molar value.

The first data set deals with T1, GSNOR (Homo sapiens, UniProt P11766).
T1 construct: made in house; host or cells: E. coli (arabinose-induced)
T1 sequence (P11766 whole entry): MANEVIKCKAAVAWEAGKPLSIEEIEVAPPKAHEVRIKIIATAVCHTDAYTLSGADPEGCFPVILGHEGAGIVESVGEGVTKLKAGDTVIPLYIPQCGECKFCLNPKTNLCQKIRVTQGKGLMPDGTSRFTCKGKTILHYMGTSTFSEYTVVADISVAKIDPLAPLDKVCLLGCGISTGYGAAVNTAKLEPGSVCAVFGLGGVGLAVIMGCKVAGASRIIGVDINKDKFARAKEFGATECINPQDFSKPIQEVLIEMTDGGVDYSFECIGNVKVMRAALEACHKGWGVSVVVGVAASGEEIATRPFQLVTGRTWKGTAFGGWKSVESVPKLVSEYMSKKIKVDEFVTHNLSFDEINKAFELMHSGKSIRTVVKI
The data set can be described thus: GSNOR assay (inhibition of GSNOR activity, NADH absorbance at 340 nm). In kind it is biochemical. To be noted: assay of Example 24; 0.240 mM GSNO, 0.300 mM NADH, pH 7.4, 25° C.; read-out: IC50 (GSNOR inhibitor activity). The protocol:
Various compounds were tested in vitro for their ability to inhibit GSNOR activity. GSNOR expression and purification is described in Biochemistry 2000, 39, 10720-10729.
GSNOR Fermentation: Pre-cultures were grown from stabs of a GSNOR glycerol stock in 2XYT media containing 100 ug/ml ampicillin after an overnight incubation at 37° C. Cells were then added to fresh 2XYT (4 L) containing ampicillin and grown to an OD (A600) of 0.6-0.9 at 37° C. before induction. GSNOR expression was induced with 0.1% arabinose in an overnight incubation at 20° C.
GSNOR Purification: E. coli cell paste was lysed by nitrogen cavitation and the clarified lysate purified by Ni affinity chromatography on an AKTA FPLC (Amersham Pharmacia). The column was eluted in 20 mM Tris pH 8.0/250 mM NaCl with a 0-500 mM imidazole gradient. Eluted GSNOR fractions containing the Smt-GSNOR fusion were digested overnight with Ulp-1 at 4° C. to remove the affinity tag then re-run on the Ni column under the same conditions. GSNOR was recovered in the flowthrough fraction and for crystallography is further purified by Q-Sepharose and Heparin flowthrough chromatography in 20 mM Tris pH 8.0, 1 mM DTT, 10 uM ZnSO4.
GSNOR Assay: GSNO and Enzyme/NADH Solutions are made up fresh each day. The Solutions are filtered and allowed to warm to room temperature. GSNO Solution: 100 mM NaPO4 (pH 7.4), 0.480 mM GSNO. 396 μL of GSNO Solution is added to a cuvette followed by 8 μL of test compound in DMSO (or DMSO only for full reaction control) and mixed with the pipette tip. Compounds to be tested are made up at a stock concentration of 10 mM in 100% DMSO. 2 fold serial dilutions are done in 100% DMSO. 8 μL of each dilution are added to an assay so that the final concentration of DMSO in the assay is 1%. The concentrations of compounds tested range from 100 to 0.003 μM. Enzyme/NADH Solution: 100 mM NaPO4 (pH 7.4), 0.600 mM NADH, 1.0 μg/mL GSNO Reductase. 396 μL of the Enzyme/NADH Solution is added to the cuvette to start the reaction. The cuvette is placed in the Cary 3E UV/Visible Spectrophotometer and the change in 340 nm absorbance/min at 25° C. is recorded for 3 minutes. The assays are done in triplicate for each compound concentration. IC50's for each compound are calculated using the standard curve analysis in the Enzyme Kinetics Module of SigmaPlot.
Final assay conditions: 100 mM NaPO4, pH 7.4, 0.240 mM GSNO, 0.300 mM NADH, 0.5 μg/mL GSNO Reductase and 1% DMSO. Final volume: 800 μL/cuvette.
With `COCc1oc2cc(O)ccc2c(=O)c1-c1ccc(C(=O)O)cc1` [Example 2, 4-(7-hydroxy-2-(methoxymethyl)-4-oxo-4H-chromen-3-yl)benzoic acid], the pIC50 is more than 6.30. Take `O=C(O)c1ccc(-c2c(C(F)(F)F)oc3cc(O)ccc3c2=O)cc1Cl` [Example 18, 2-chloro-4-(7-hydroxy-4-oxo-2-(trifluoromethyl)-4H-chromen-3-yl)benzoic acid]: the pIC50 is more than 7.00. `COc1cc(C(=O)O)ccc1-c1c(C(F)(F)F)oc2cc(O)ccc2c1=O` [Example 20, 4-(7-hydroxy-4-oxo-2-(trifluoromethyl)-4H-chromen-3-yl)-3-methoxybenzoic acid]: the pIC50 was more than 7.00. Turning to `Cc1oc2cc(O)ccc2c(=O)c1-c1ccc(C(=O)O)cc1` [Example 5, 4-(7-hydroxy-2-methyl-4-oxo-4H-chromen-3-yl)benzoic acid], the pIC50 was more than 6.30. Same read-out and setting: the same measure for `O=C(O)c1ccc(-c2c(C(F)(F)F)oc3cc(O)ccc3c2=O)cc1` [Example 10, 4-(7-hydroxy-4-oxo-2-(trifluoromethyl)-4H-chromen-3-yl)benzoic acid]: more than 7.00. Same read-out and setting: the value for `CCC(F)(F)c1oc2cc(O)ccc2c(=O)c1-c1ccc(C(=O)O)cc1` [Example 19, 4-(2-(1,1-difluoropropyl)-7-hydroxy-4-oxo-4H-chromen-3-yl)benzoic acid] was more than 6.30.

On to `CC(C)c1oc2cc(O)ccc2c(=O)c1-c1ccc(C(=O)O)cc1` [Example 3, 4-(7-hydroxy-2-isopropyl-4-oxo-4H-chromen-3-yl)benzoic acid], for which the pIC50 was more than 6.30. Regarding `O=C(O)c1ccc(-c2c(C(F)F)oc3cc(O)ccc3c2=O)cc1` [Example 1, 4-(2-(difluoromethyl)-7-hydroxy-4-oxo-4H-chromen-3-yl)benzoic acid], the pIC50 was more than 7.00.

Turning to `O=C(O)c1ccc(-c2c(Cc3ccccc3)oc3cc(O)ccc3c2=O)cc1` [Example 6, 4-(2-benzyl-7-hydroxy-4-oxo-4H-chromen-3-yl)benzoic acid], the pIC50 was more than 6.30. `O=C(O)c1ccc(-c2c(C(F)(F)F)oc3cc(O)c(F)cc3c2=O)cc1` [Example 13, 4-(6-fluoro-7-hydroxy-4-oxo-2-(trifluoromethyl)-4H-chromen-3-yl)benzoic acid]: the pIC50 is more than 6.30. Consider `CC(F)(F)c1oc2cc(O)ccc2c(=O)c1-c1ccc(C(=O)O)cc1` [Example 16, 4-(2-(1,1-difluoroethyl)-7-hydroxy-4-oxo-4H-chromen-3-yl)benzoic acid], for which the negative logarithm of the IC50 (pIC50) is more than 7.00.

In the case of `O=C(O)c1ccc(-c2c(C(F)(F)F)oc3cc(O)ccc3c2=O)c(Cl)c1` [Example 15, 3-chloro-4-(7-hydroxy-4-oxo-2-(trifluoromethyl)-4H-chromen-3-yl)benzoic acid], the pIC50 is more than 7.00.

With `O=C(O)c1ccc(-c2c(C(F)(F)F)oc3cc(O)ccc3c2=O)cc1F` [Example 14, 2-fluoro-4-(7-hydroxy-4-oxo-2-(trifluoromethyl)-4H-chromen-3-yl)benzoic acid], the pIC50 is more than 7.00.

The data set is the same for the next values; noted with them: method described in Example 24; comparative example; read-out: IC50 (GSNOR inhibitor activity).
For the compound `O=C(O)c1ccc(-c2coc3cc(O)ccc3c2=O)cc1` [Example 22, 4-(7-hydroxy-4-oxo-4H-chromen-3-yl)benzoic acid, reference compound], the pIC50 is 6.87.

System in a further data set: not listed separately
The data set can be described thus: Mouse pharmacokinetic (PK) study. To be noted: plasma, male BALB/c mice, 10 mg/kg PO vs 2 mg/kg IV, single dose, based on area under the curve. Format: in vivo. The text has this: The mouse is used to determine the pharmacokinetics of GSNOR inhibitors. This species is widely used to assess the bioavailability of compounds by administering both oral (PO) and intravenous (IV) test articles. Efficacy of the GSNOR inhibitors can be compared by assessing plasma exposure in male BALB/c mice either via IV or PO administration at the times of peak activity.
The GSNOR inhibitor Compound 10 was reconstituted in a phosphate buffered saline (PBS)/10% Solutol (HS 15) clear solution resulting in a concentration of 0.2 mg/mL and administered to mice (2 mg/kg) as a single IV dose. Animals were dosed via the lateral tail vein. […] The plasma was transferred into labeled polypropylene tubes and frozen at −70° C. until analyzed by LC/MS/MS.
The GSNOR inhibitor Compound 10 was reconstituted in 40% Propylene Glycol/40% Propylene Carbonate/20% of a 5% Sucrose clear solution resulting in a concentration of 2 mg/mL and administered to mice (10 mg/kg) as a single oral dose via gavage. […] The plasma was transferred into labeled polypropylene tubes and frozen at −70° C. until analyzed by LC/MS/MS.
Plasma samples at each timepoint were analyzed using a LC-MS/MS with a lower limit of quantification (LLOQ) of 1 ng/mL. Plasma was analyzed to determine the amount of the GSNOR inhibitor in each sample and regression curves were generated for each GSNOR inhibitor in the relevant matrixes. […]
For the compound `O=C(O)c1ccc(-c2c(C(F)(F)F)oc3cc(O)ccc3c2=O)cc1` [Example 10, 4-(7-hydroxy-4-oxo-2-(trifluoromethyl)-4H-chromen-3-yl)benzoic acid], the bioavailability was more than 17%.
